Reference: PMC6222672, “Pharmacokinetic and Metabolism Studies of 12-Riboside-Pseudoginsengenin DQ by UPLC-MS/MS and UPLC-QTOF-MS^E” (Molecules : A Journal of Synthetic Chemistry and Natural …, 2018)
“Also recorded” adds a separate entry of the source. Like-named read-outs stand apart in the source and are kept apart here.

Tests used:
[1] = Pharmacokinetic study of RPDQ in rats after intragastric and intravenous administration (UPLC-MS/MS of plasma); format: in vivo, Wistar rats; settings: for AUC(0-t): read-out: AUC(0–60); for bioavailability: read-out: F (absolute bioavailability)
Method: The experiments on animals were approved by the Review Committee of Animal Care and Use of Jilin University. The study was conducted according to the ethical principles for animal use and care. Wistar rats (200 ± 20 g) were provided by Changchun Yisi Laboratory Animal Co. Ltd. (Changchun, China). All rats were housed in an environmentally controlled room (12 h light/dark cycle; temperature: 22 ± 2 °C; relative humidity: 55 ± 5%), and except during fast before experiments, the rats were fed with standard laboratory food and water ad libitum.
In the pharmacokinetic study, the rats were divided into different groups (n = 6, three males and three females): (1) RPDQ (6 mg/kg, i.g.), (2) RPDQ (12 mg/kg, i.g.), (3) RPDQ (24 mg/kg, i.g.), and (4) RPDQ (0.3 mg/kg, i.v.).
From the fossa orbitalis vein, the whole blood (150 μL) was collected at 0.5, 0.75, 1, 2, 3, 4, 6, 9, 10, 12, 18, 24, 48, and 60 h after oral administration, and 0.25, 0.5, 0.75, 1, 1.5, 2, 2.5, 3, 6, 12, and 24 h after intravenous administration. All the blood samples were anticoagulated with sodium heparin. After collection, the whole blood was centrifuged at 4000 rpm and 4 °C for 20 min to obtain plasma.
Plasma samples (being stored at −20 °C before analysis) were thawed and vortexed at room temperature. The mixture of each plasma sample (50 μL) and 20R-panaxadiol solution (100 ng/mL, 500 μL) was vortexed (2 min) and centrifuged (13,000 rpm, 4 °C, 10 min). The clear supernatant was obtained and transferred into vials, and 2 μL of it were then kept in autosampler at 4 °C and injected for analysis.
The analysis of pharmacokinetic was conducted on a Waters ACQUITY UPLC System coupled with a XEVO TQ-S mass spectrometer equipped with an electrospray ionization source (Waters, Milford, MA, USA). Separation was performed on a Waters BEH C18 UPLC column (2.1 × 50 mm, 1.7 μm) at 40 °C. The mobile phase, 0.1% formic aqueous solution (A) and 0.1% formic acid in acetonitrile (B) in proportions, was adjusted with a gradient elution programme (0 min, 40% B; 0~2 min, 40~100% B; 2~2.5 min, 100% B; 2.5~2.6 min, 100~40% B; 2.6~3.5 min, […]). The flow rate was kept constant at 0.3 mL/min. Chromatography of the RPDQ and IS was performed within 3.5 min. The injection volume was 2 μL. The multiple reaction monitoring (MRM) mode was performed in ESI^+. The main parameters were as follows: capillary voltage: 3000 V; source temperature: 150 °C; desolvation temperature: 300 °C; desolvation gas flow: 800 L/h; cone gas flow: 150 L/h; nebulizer gas flow: 7 bar; collision gas flow: 0.15 mL/min; cone voltage: 35 V and 28 V for RPDQ and IS, respectively; collision energy: 10 eV and 6 eV for RPDQ and IS, respectively. Masslynx V4.1 workstation (Waters, Milford, MA, USA) was used for data acquisition and processing.
Samples containing RPDQ above the upper limit of quantification were diluted and re-analyzed. The pharmacokinetics analysis in non-compartmental mode was conducted by Drug and Statistics (DAS) 3.0 pharmacokinetic software programme (Mathematical Pharmacology Professional Committee of China, Shanghai, China). The concentration versus the time curve was plotted. The time to reach the peak concentration (Tmax) and the maximum plasma concentration (Cmax) were obtained after oral administration. The results are shown as the mean ± standard deviation. The absolute bioavailability (F%) was calculated using the equation (AUCp.o. × Dosei.v.)/(AUCi.v. × Dosep.o.) × 100%.

A549 cells = experiment: MTT cell viability test, A549 cells; format: cell-based; settings: 1-200 μM, 44 h
Excerpt: Antitumor activity test of RPDQ in vitro by using S180, SPC-A-1 and A549 cells
Since the startmaterial for the semi-synthesis of 12-Riboside-pseudoginsengenin DQ (RPDQ) was pseudoginsengenin DQ (PDQ), the antitumor activities of RPDQ […]
and PDQ were both tested.
The SPC-A-1 and S180 tumor cell lines were purchased from Wuhan Procell Life Science & Technology Co,.Ltd. A549 tumor cell lines were purchased from iCell Bioscience Inc (Shanghai) Biological Co., Ltd.
2. Experimental procedure
S180 cells (1 × 10^5 cells/mL) were seeded into a 96-well plate. After 24 h, pretreated with various concentrations of RPDQ or PDQ (1-200 μM) for 44 h at 37℃, and the cells were treated with MTT for 4 h. The formazan crystal product in the cells were dissolved with acid isopropanol. The absorbance was measured at 570 nm with a […]
SPC-A-1/A549 cells(1×10^5 cells/mL) were seeded into a 96-well plate. After 24 h, pretreated with various concentrations of RPDQ or PDQ (1-200 μM) for 44 h at 37℃ , and the cells were treated with MTT for 4 h. […] The absorbance was measured at 490 nm with a […]
Cell viability was calculated by the following formula: Cell viability (%)= 1-{(ODcontrolgroup-ODtreatedgroup)/ODcontrol group×100%}.
All data were processed by statistical software SPSS 17.0. The data were expressed as Mean ± Standard Deviation. The differences between groups were analyzed by one-way analysis of variance. […]

[2] = both sexes, Wistar, rat, plasma, iv, rats, 0.3 mg/kg i.v.
[3] = both sexes, Wistar, rat, plasma, po, rats, 6 mg/kg intragastric
[4] = both sexes, Wistar, rat, plasma, po, rats, 12 mg/kg intragastric
[5] = both sexes, Wistar, rat, plasma, po, rats, 24 mg/kg intragastric

Compound `CC(C)(O)[C@@H]1CC[C@@](C)([C@H]2CC[C@]3(C)[C@@H]2[C@H](O[C@@H]2O[C@H](CO)[C@@H](O)[C@H]2O)C[C@@H]2[C@@]4(C)CC[C@H](O)C(C)(C)[C@@H]4CC[C@]23C)O1` [RPDQ, 20S, 24S-12-O-β-D-ribofuranosyl-dammar-20, 24-epoxy-3β, 12β, 25-triol] has an AUC(0-inf) [1, 2] of 8330 ± 270 ng·h/mL, a Tmax [1, 2] of 0.25 h and a half-life [1, 2] of 2.94 ± 0.51 h. It also gave an AUC(0-t) [1, 2] of 8300 ± 258 ng·h/mL, a clearance ([1]; both sexes, Wistar, rat, plasma, iv, rats, 0.3 mg/kg i.v., read-out: CLz (converted)) of 0.667 mL/min/kg and a Vd ([1]; both sexes, Wistar, rat, plasma, iv, rats, 0.3 mg/kg i.v., read-out: Vz) of 11.52 ± 0.02 L/kg. For the same compound, the AUC(0-inf) [1, 3] was 9570 ± 546 ng·h/mL, the Tmax [1, 3] was 7 ± 1.55 h and the half-life [1, 3] was 12.6 ± 1.28 h. It also gave a bioavailability ([1]; both sexes, Wistar, rat, plasma, po, rats, 6 mg/kg intragastric vs 0.3 mg/kg i.v.) of 5.55%, an AUC(0-t) [1, 3] of 9210 ± 608 ng·h/mL and an AUC(0-inf) [1, 4] of 17700 ng·h/mL. The Tmax [1, 4] was 7.5 ± 1.63 h, the half-life [1, 4] was 12.8 ± 0.56 h and the bioavailability ([1]; both sexes, Wistar, rat, plasma, po, rats, 12 mg/kg intragastric vs 0.3 mg/kg i.v.) was 5.15%. For the same compound, the AUC(0-t) [1, 4] was 17100 ng·h/mL, the AUC(0-inf) [1, 5] was 42600 ng·h/mL and the Tmax [1, 5] was 7 ± 1.55 h. The half-life [1, 5] was 13.7 ± 1.11 h, the bioavailability ([1]; both sexes, Wistar, rat, plasma, po, rats, 24 mg/kg intragastric vs 0.3 mg/kg i.v.) was 6.08% and the AUC(0-t) [1, 5] was 40400 ng·h/mL. It also gave a concentration at 6 h ([1]; both sexes, Wistar, rat plasma sample collected at 6 h after an oral dose of 12 mg/kg) of 1000 ng/mL, a CLz ([1]; rats, 6 mg/kg intragastric) of 10.5 ± 0.6 mL/min/kg and a Vz ([1]; rats, 6 mg/kg intragastric) of 11.45 ± 1.55 L/kg. The CLz ([1]; rats, 12 mg/kg intragastric) was 11.3 ± 0.367 mL/min/kg, the Vz ([1]; rats, 12 mg/kg intragastric) was 12.53 ± 0.59 L/kg and the CLz ([1]; rats, 24 mg/kg intragastric) was 9.5 ± 0.733 mL/min/kg. The Vz ([1]; rats, 24 mg/kg intragastric) was 11.28 ± 1.69 L/kg, the “time at which RPDQ could still be quantified in plasma” value ([1]; rats, after gastrointestinal administration) was 60 h and the “anticancer / anti-proliferation effect” value (A549 cells) was “good anti-proliferation effects; also recorded: significant anticancer activity”.
